Data: ChEMBL document CHEMBL1158670, “Mediation of the cytotoxicity of lanostanoids and steroids of Ganoderma tsugae through apoptosis and cell cycle” (J Nat Prod, 1998)
≈ marks a conversion by molar mass, not a printed value. Calls of active or inactive are those of the source. The calls are words filed in the database; no cut-off is given here.

Assays:
[1] = Cell cycle arrest in human Hep3B cells by accumulation at S phase at 100 ug/mL after 24 hrs by flow cytometry; format: functional, cell-based; details: Hep 3B2
[2] = Cell cycle arrest in human Hep3B cells by accumulation at S phase at 50 ug/mL after 24 hrs by flow cytometry; format: functional, cell-based; details: Hep 3B2
[3] = Cell cycle arrest in human Hep3B cells by accumulation at G0/G1 phase at 50 ug/mL after 24 hrs by flow cytometry; format: functional, cell-based; details: Hep 3B2
[4] = Cell cycle arrest in human Hep3B cells by accumulation at G0/G1 phase at 100 ug/mL after 24 hrs by flow cytometry; format: functional, cell-based; details: Hep 3B2
[5] = Cell cycle arrest in human Hep3B cells by accumulation at S phase at 35 ug/mL after 24 hrs by flow cytometry; format: functional, cell-based; details: Hep 3B2
[6] = Cell cycle arrest in human Hep3B cells by accumulation at G0/G1 phase at 20 ug/mL after 24 hrs by flow cytometry; format: functional, cell-based; details: Hep 3B2
[7] = Cell cycle arrest in human Hep3B cells by accumulation at G2/M phase after 24 hrs by flow cytometry; format: functional, cell-based, Hep 3B2
[8] = Cell cycle arrest in human Hep3B cells by accumulation at G2/M phase at 50 ug/mL after 24 hrs by flow cytometry; format: functional, cell-based; details: Hep 3B2
[9] = Cell cycle arrest in human Hep3B cells by accumulation at G2/M phase at 35 ug/mL after 24 hrs by flow cytometry; format: functional, cell-based; details: Hep 3B2
[10] = Cell cycle arrest in human Hep3B cells by accumulation at G0/G1 phase at 35 ug/mL after 24 hrs by flow cytometry; format: functional, cell-based; details: Hep 3B2
[11] = Cell cycle arrest in human Hep3B cells by accumulation at S phase at 20 ug/mL after 24 hrs by flow cytometry; format: functional, cell-based; details: Hep 3B2
[12] = Cell cycle arrest in human Hep3B cells by accumulation at G2/M phase at 100 ug/mL after 24 hrs by flow cytometry; format: functional, cell-based; details: Hep 3B2
[13] = Cell cycle arrest in human Hep3B cells by accumulation at G2/M phase at 20 ug/mL after 24 hrs by flow cytometry; format: functional, cell-based; details: Hep 3B2
[14] = Cell cycle arrest in human Hep3B cells by accumulation at subG1 phase at 24 ug/mL after 24 hrs by flow cytometry; format: functional, cell-based; details: Hep 3B2

IC50 [7] [µg/mL] | SMILES | Activity [1] [%] | Activity [2] [%] | Activity [3] [%] | Activity [4] [%] | Activity [5] [%] | Activity [6] [%] | Activity [8] [%] | Activity [9] [%] | Activity [10] [%] | Activity [11] [%] | Activity [12] [%] | Activity [13] [%] | Activity [14]
87.1 (≈ 202 µM) | CC(C)[C@@H](C)/C=C/[C@@H](C)[C@H]1CC[C@H]2C3=CC[C@H]4C[C@H](O)[C@@H](O)C[C@]4(C)[C@@]3(O)CC[C@]12C | 37 | 35.5 | 55.3 | 57.8 | 35 | 50.6 | 9.2 | 9.8 | 55.3 | 36.8 | 5.2 | 12.6 | 
 | CC(=O)O[C@@H]1CC[C@]2(C)C3=C(CC[C@H]2C1(C)C)[C@]1(C)CC[C@H]([C@@H](CCC=C(C)C)C(=O)O[C@@H]2O[C@H](CO)[C@@H](O)[C@H](O)[C@H]2O)[C@@]1(C)CC3 |  |  |  |  |  |  |  |  |  |  |  |  | Active
